We go through 18 molecules from patent publication US20050277600A1, “Compositions and methods of use of dimer digallates” (Mars, Incroporated, priority 2004, published 2005).

In data set [1] the test system is rabbit aortic rings. Put plainly: Relaxation of norepinephrine pre-constricted rabbit aortic rings ex vivo. As to conditions: for Max Relaxation: Experiment 3, 100 μM; for Aortic Ring Effective Conc,: Table 1 summary. The protocol: Several compounds were investigated for their effect on nitric oxide (NO) production and vasorelaxation using serum-free human umbilical vein endothelial cell (HUVEC) culture system in vitro and rabbit aortic ring model ex vivo, respectively. NO production by endothelial cells and relaxation of pre-constricted aortic rings are two main markers for evaluating vascular effects of test compounds. Effect of different procyanidins on endothelium-dependent relaxation was tested in an ex vivo experiment performed as previously described by Karim et al., J. Nutrl Suppl., 130 (8S): […]-[…] (2000), the relevant portions of which are hereby incorporated herein by reference. The advantage of using this method is that it assesses functional vascular end points. […] In summary, rabbit aortic rings were obtained from male New Zealand White rabbits. Following isolation, the rings were mounted in oxygenated Kreb's buffer, and pre-constricted with norepinephrine (NE) (10^-6 M). […] A positive control acetylcholine (10^-9 to 10^-4 M) and a negative control L-NAME were included in the experiment. Use of L-NAME, which is a NO synthase (NOS) inhibitor, allows for differentiating between endothelium dependent and endothelium independent relaxation events. […] The relaxation response was measured as a function of the decrease in the tension (g) exerted by the aortic rings over time […]. Data obtained were expressed as a percent relaxation of the norepinephrine (NE) constricted rings. The same statistical approach as described above was used. Dose response curves were obtained by plotting the average percent relaxation (+/-SE) against the concentrations used.

The test system of data set [2] is HUVEC. Put plainly: HUVEC-mediated MTT reduction (toxic effects). To be noted: for cell-mediated MTT reduction: Experiment 2, chronic, 5 x 24 hours, 10 μM (20 μM for the Epicatechin gallates). (Tetrazolium dyes change colour on reduction, which living cells bring about.)
Method: Cell counts and total protein were used to assess intra-assay variation. Potential toxic effects of tested compounds were also monitored (MTT reduction was measured).
Data set [3] deals with human umbilical vein endothelial cell (HUVEC) NO production. Put plainly: HUVEC NO production (NOx in cell culture medium, chemiluminescence). The format is cell-based. As to conditions: for HUVEC Cells NOx, 24 hr / HUVEC Cells NOx, 5 d / HUVEC Cells NOx, 2 hr: Table 2 summary; for NO production, positive and negative controls: Experiment 1, acute, 2 hours. The protocol: Several compounds were investigated for their effect on nitric oxide (NO) production and vasorelaxation using serum-free human umbilical vein endothelial cell (HUVEC) culture system in vitro and rabbit aortic ring model ex vivo, respectively. NO production by endothelial cells and relaxation of pre-constricted aortic rings are two main markers for evaluating vascular effects of test compounds.
HUVECs obtained from a single donor were cultured in serum free, low protein (0.5 g/l), antibiotic-free cell culture medium supplemented with essential growth factors, nutrients and minerals. […] The cell culture medium was substituted with apo-transferrin, superoxide dismutase, and catalase to exclude secondary effects of test compounds involving their auto-oxidation mediated hydrogen peroxide formation.
NO production was evaluated by measuring the total amount of all major nitric oxide end products (NOx, including nitrate, nitrite, nitrosothiols) present in the cell culture medium. […] The amount of NO released from the culture medium was subsequently evaluated by measuring the chemiluminescence emitted during the stoichiometrical reaction between ozone and NO using a NO Analyzer (Sievers Instruments, Inc. Boulder, Colo.).
The data presented herein were obtained from three experiments and were expressed as the concentration of NO present (in μmol/l) (as NOx) in the cell culture medium+/−standard deviation (SD). The data were corrected for the NOx intrinsically present in the fully supplemented cell culture medium and normalized with respect to the volume of media from which the sample was drawn. Data were analyzed using Student's t-test with a 95% level of confidence. P values equal to or less than 0.05 were defined as statistically significant.
For the acute effect test, HUVECs were incubated with the test compounds for 2 hours at concentrations of 100 nM, 1 μM, and 10 μM at 37° C. and 5% CO2. […] (FIG. 1)
For the chronic effect test, HUVECs were incubated with 5 subsequent doses of test compounds, each for 24 hours. After each 24 hour treatment, culture medium was replaced.
For the acute effect test, HUVECs were incubated with a single dose of the test compounds for 24 hours at concentrations of 100 nM, 1 μM, and 10 μM at 37° C. and 5% CO2.

The mark [4] stands for this setting: Experiment 4, 10^−9M -10^4M (so in the source).
Where [5] appears, read: Experiment 1, chronic, 5 subsequent 24 hour doses.

For `O=C(O[C@@H]1Cc2c(O)cc(O)cc2O[C@@H]1c1ccc(O)c(O)c1)c1cc(O)c(O)c(O)c1` [ECG, Epicatechingallate, reference compound], in data set [1] (setting [4]), the relaxation response result is recorded as “No significant relaxation response”. Also, in data set [2], the “cell-mediated MTT reduction” value is reported as “significant decline of cell-mediated MTT reduction”.
Take `O=C(O[C@@H]1Cc2c(O)cc(O)cc2O[C@@H]1c1cc(O)c(O)c(O)c1)c1cc(O)c(O)c(O)c1` [EGCG, Epigallocatechingallate, reference compound]: the relaxation response entry in data set [1] (setting [4]) is reported as “No significant relaxation response”. In addition, in data set [3] (Experiment 2, single dose, 24 hours, 10 μM), the “modulation of NO production” value was “statistically significant ability to modulate NO production”. Also, in data set [3], the “HUVEC Cells NOx, 24 hr” value is given as 20 uM, sign. NOx inc and the “HUVEC Cells NOx, 5 d” value is on record as “No significant NOx increase;”.
Consider `CC(=O)OCC[N+](C)(C)C` [acetylcholine, reference compound], for which, in data set [1] (positive control), the “concentration producing a relaxation response” value is listed as 10^−7 M and the “concentration reaching maximal relaxation” value is reported as 10^−6 M.
For the molecule `Oc1cc(O)c2c(c1)O[C@H](c1ccc(O)c(O)c1)[C@@H](O)[C@H]2c1c(O)cc(O)c2c1O[C@H](c1ccc(O)c(O)c1)[C@@H](O)C2` [C-(4β→8)-C, (+)-Catechin-(4β,8)-(+)-Catechin], the relaxation response result in data set [1] (Experiment 1, 10^−9 to 10^−4 M) is “No significant relaxation response”. For the same molecule, the relaxation response entry in data set [1] (Experiment 2, 10^−9 to 10^−4 M) is “No significant relaxation response”. In data set [3] (Experiment 2, chronic, 5 subsequent 24 hour doses), the “HUVEC NO production” value is listed as “increase in HUVEC NO production”. In data set [3], the “HUVEC Cells NOx, 2 hr” value is reported as “no effect”; the “HUVEC Cells NOx, 24 hr” value is “no effect”; the “HUVEC Cells NOx, 5 d” value is given as 10 uM, significant NOx increase.
In the case of `NCCc1c[nH]cn1` [histamine, reference compound], the “NO production, positive and negative controls” value in data set [3] (compared to vehicle) is recorded as “statistically significant increase in NO production”.
With `O=C(O[C@H]1[C@@H](c2c(O)cc(O)c3c2O[C@H](c2ccc(O)c(O)c2)[C@@H](OC(=O)c2cc(O)c(O)c(O)c2)C3)c2c(O)cc(O)cc2O[C@@H]1c1ccc(O)c(O)c1)c1cc(O)c(O)c(O)c1` [C-(4β→8)-C digallate, (+)-Catechin-(4β,8)-(+)-Catechin Digallate], the “relaxation response, percent relaxation of NE constricted rings” value (“relaxation response, percent relaxation” below) in data set [1] (Experiment 2, 10^−4 M) was 72.6+/−9.8%. In addition, in data set [1], the “Max Relaxation” value was 73% and the “Aortic Ring Effective Conc,” value was 100 µM.
`Oc1cc(O)c2c(c1)O[C@H](c1ccc(O)c(O)c1)[C@@H](O)[C@H]2c1c(O)cc(O)c2c1O[C@H](c1ccc(O)c(O)c1)[C@H](O)C2` [C-(4β→8)-EC]: the relaxation response entry in data set [1] (Experiment 2, 10^−9 to 10^−4 M) is given as “No significant relaxation response”. The “cell-mediated MTT reduction” value in data set [2] is “significant decline of cell-mediated MTT reduction”.
Take `O=C(O[C@@H]1[C@@H](c2c(O)cc(O)c3c2O[C@H](c2ccc(O)c(O)c2)[C@@H](OC(=O)c2cc(O)c(O)c(O)c2)C3)c2c(O)cc(O)cc2O[C@@H]1c1ccc(O)c(O)c1)c1cc(O)c(O)c(O)c1` [EC-(4β→8)-C digallate, (−)-Epicatechin-(4β,8)-(+)-Catechin Digallate]: in data set [1] (Experiment 2, 10^−4 M), the “relaxation response, percent relaxation” value is recorded as 56.7+/−15.4%. In data set [1], the “Max Relaxation” value amounted to 57% and the “Aortic Ring Effective Conc,” value was 100 µM.
For “(−)-Epicatechin-(4β,8)-(OMethyl)4-(−)-Epicatechin Digallate [EC-(4β→8)(OMethyl)4-EC digallate]”, the relaxation response entry in data set [1] (Experiment 1, 10^−9 to 10^−4 M) is “No significant relaxation response”. For the same molecule, in data set [3], the “HUVEC Cells NOx, 2 hr” value is “no effect”; the “HUVEC Cells NOx, 24 hr” value is “no effect”; the “HUVEC Cells NOx, 5 d” value is 10 uM, significant NOx increase.
With `CNC(=N)NCCC[C@H](N)C(=O)O` [L-NNMA, reference compound], the “NO production, positive and negative controls” value in data set [3] (compared to vehicle) was “completely attenuated the acetylcholine and histamine-NO production”. The “NOx production, positive and negative controls” value in data set [3] (Experiment 2, single dose, 24 hours, compared to vehicle) is “completely attenuated the acetylcholine-induced NO production”.
`Oc1cc(O)c2c(c1)O[C@H](c1cc(O)c(O)c(O)c1)[C@H](O)C2` [EGC, Epigallocatechin, reference compound]: the relaxation response result in data set [1] (setting [4]) is reported as “No significant relaxation response”.
Regarding `O=C(O)c1cc(O)c(O)c(O)c1` [Gallic Acid, reference compound], in data set [1] (setting [4]), the relaxation response result is “No significant relaxation response”.
As to `O=C(O[C@H]1[C@H](c2c(O)cc(O)c3c2O[C@H](c2ccc(O)c(O)c2)[C@@H](OC(=O)c2cc(O)c(O)c(O)c2)C3)c2c(O)cc(O)cc2O[C@@H]1c1ccc(O)c(O)c1)c1cc(O)c(O)c(O)c1` [C-(4α→8)-C digallate, (+)-Catechin-(4α,8)-(+)-Catechin Digallate], the “relaxation response, percent relaxation” value in data set [1] (Experiment 2, 10^−4 M) is recorded as 71.7+/−11.6%. In addition, in data set [1], the “Max Relaxation” value was 72% and the “Aortic Ring Effective Conc,” value is 100 µM.
Consider `Oc1cc(O)c2c(c1)O[C@H](c1ccc(O)c(O)c1)[C@@H](O)[C@@H]2c1c(O)cc(O)c2c1O[C@H](c1ccc(O)c(O)c1)[C@@H](O)C2` [C-(4α→8)-C, (+)-Catechin-(4α,8)-(+)-Catechin], for which the “relaxation response, percent relaxation” value in data set [1] (Experiment 1, 10^−4 M) is recorded as 60.80+/−15.09%. Besides, in data set [1], the “Max Relaxation” value came to 61% and the “Aortic Ring Effective Conc,” value is 100 µM. In addition, the NO production result in data set [3] (Experiment 1, 24 h after single dose, 10 μM) was “increased NO production”. The NO production entry in data set [3] (setting [5]) is listed as “did not modulate NO production”. In addition, in data set [3], the “HUVEC Cells NOx, 2 hr” value is on record as “no effect”; the “HUVEC Cells NOx, 24 hr” value is given as 10 uM, sign. NOx incr; the “HUVEC Cells NOx, 5 d” value is on record as “no effect”.
In the case of `Cc1c(O)c(C2c3c(O)cc(O)cc3OC(c3ccc(O)c(O)c3)C2O)c(O)c2c1OC(c1ccc(O)c(O)c1)C(O)C2` (stereo not drawn) [EC(4β→6)EC-8methyl], the relaxation response result in data set [1] (Experiment 2, 10^−9 to 10^−4 M) is on record as “No significant relaxation response”.
On to `Oc1cc(O)c2c(c1)O[C@H](c1ccc(O)c(O)c1)[C@H](O)[C@H]2c1c(O)cc(O)c2c1O[C@H](c1ccc(O)c(O)c1)[C@H](O)C2` [EC-(4β→8)-EC], for which the relaxation response entry in data set [1] (Experiment 1, 10^−9 to 10^−4 M) was “No significant relaxation response”. Moreover, the MTT reduction result in data set [2] (setting [5]) is given as “decline in MTT reduction”.
Turning to `Oc1cc(O)c2c(c1)O[C@H](c1ccc(O)c(O)c1)[C@@H](O)[C@@H]2c1c(O)cc(O)c2c1O[C@H](c1ccc(O)c(O)c1)[C@H](O)C2` [C-(4α→8)-EC], the relaxation response result in data set [1] (Experiment 2, 10^−9 to 10^−4 M) is “No significant relaxation response”.
For `COC(=O)[C@@H](N)CCCNC(=N)N[N+](=O)[O-]` [L-NAME, reference compound], the “relaxation responses after pre-treatment with NOS inhibitor” value in data set [1] (vessels pre-treated with negative control) is “relaxation responses were attenuated”.
